{"source": "patent US5223513A", "about": "“Quinoline derivatives, their production and use” (Takeda Chemical Industries, Ltd., priority 1989, dated 1993)", "key": {"[1]": {"molecular_target": "T1, acyl-CoA : cholesterol acyltransferase (ACAT) (Rattus norvegicus, UniProt Q7TQM4)", "T1 construct": "mucosal microsome fraction of the small intestine; from tissue; host or cells: mucosal microsome fraction of rat small intestine", "T1 sequence (Q7TQM4 1-524)": "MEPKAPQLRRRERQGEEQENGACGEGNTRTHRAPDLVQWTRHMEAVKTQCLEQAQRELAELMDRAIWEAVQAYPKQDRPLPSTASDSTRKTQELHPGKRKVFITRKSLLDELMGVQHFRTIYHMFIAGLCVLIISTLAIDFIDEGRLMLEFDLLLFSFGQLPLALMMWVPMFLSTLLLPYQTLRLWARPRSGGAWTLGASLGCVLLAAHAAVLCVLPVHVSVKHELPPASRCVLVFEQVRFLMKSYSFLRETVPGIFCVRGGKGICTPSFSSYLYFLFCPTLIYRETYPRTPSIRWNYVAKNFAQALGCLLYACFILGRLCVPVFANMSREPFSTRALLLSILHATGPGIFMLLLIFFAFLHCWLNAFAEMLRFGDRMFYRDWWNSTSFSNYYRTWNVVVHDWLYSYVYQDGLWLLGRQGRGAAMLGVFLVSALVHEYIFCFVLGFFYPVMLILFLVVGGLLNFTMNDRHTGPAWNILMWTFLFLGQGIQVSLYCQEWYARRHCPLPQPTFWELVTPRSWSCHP", "assay": "Acyl-CoA : Cholesterol Acyltransferase (ACAT) inhibitory activity", "format": "biochemical", "conditions": "for inhibition at 1 µM: 10^-6 M of test compound, production of labeled cholesterol ester, read-out: ACAT Inhibition Rate (%); for IC50: calculated by plotting inhibition rates obtained at plural concentrations, read-out: 50% inhibitory concentration (IC50)", "procedure": "The enzyme ACAT was prepared by the method of Heider et al. described in Journal of Lipid Research, Vol. 24, page 1127 (1982), from the mucosal microsome fraction of the small intestine of male, 6-week old Sprague-Dawley rats which had been fasted for 20 hours.\nACAT activity was calculated by the method of Helgerud et al. described in Journal of Lipid Research, Vol. 22, page 271 (1981), namely, by measuring the amount of the labeled cholesterol ester produced from [1-^14 C] oleoyl-CoA and endogenous cholesterol. […]"}, "[2]": {"assay": "Plasma Cholesterol Lowering Activity in Cholesterol Fed Rat", "format": "in vivo, rat (Sarague-Dawely)", "conditions": "1% cholesterol diet containing 0.0003% of test compound for 7 days; Example 3 dose 0.27 ± 0.02, Example 24 dose 0.24 ± 0.03 mg/kg/day; mean ± standard deviation; *p < 0.05 (t test vs control group 195 ± 32)", "procedure": "To 7-week old, male Sarague-Dawely rats which were grouped according to body weight was fed 1% cholesterol diet containing 0.5% of cholic acid, 5% of olive oil and 0.0003% of a test compound for 7 days. Blood was collected from the rats during 8:30-10:00 am at the fed state, and the plasma cholesterol level was measured enzymatically. The amount of test compound consumed by rats was calculated on the basis of the amount of the diet consumed by the rats."}}}
{"smiles": "Cn1c(=O)c(NC(=O)Nc2ccc(F)cc2F)c(-c2ccccc2Cl)c2cc(Cl)ccc21", "note": "[Example 1]", "values": [{"measurement": "inhibition at 1 µM", "setting": "[1]", "value": 96.8, "unit": "%"}]}
{"smiles": "Cc1cccc(C(C)C)c1NC(=O)Nc1c(-c2ccccc2Cl)c2cc(Cl)ccc2n(C)c1=O", "note": "[Example 2]", "values": [{"measurement": "inhibition at 1 µM", "setting": "[1]", "value": 99.2, "unit": "%"}, {"measurement": "IC50", "setting": "[1]", "value": 16, "unit": "nM"}]}
{"smiles": "Cc1cc2c(-c3ccccc3Cl)c(NC(=O)Nc3ccc(F)cc3F)c(=O)n(C)c2cc1C", "note": "[Example 3, N-[4-(2-chlorophenyl)-1,6,7-trimethyl-1,2-dihydro-2-oxo-3-quinolyl]-N'-(2,4-difluorophenyl)urea]", "values": [{"measurement": "inhibition at 1 µM", "setting": "[1]", "value": 98.7, "unit": "%"}, {"measurement": "IC50", "setting": "[1]", "value": 6.4, "unit": "nM"}, {"measurement": "Cholesterol in Serum", "setting": "[2]", "value": "129 ± 19", "unit": "mg/dL"}]}
{"smiles": "Cc1cc(C)c2c(c1)c(-c1ccccc1Cl)c(NC(=O)Nc1ccc(F)cc1F)c(=O)n2C", "note": "[Example 4, N-[4-(2-chlorophenyl)-1,2-dihydro-1,6,8-trimethyl-2-oxo-3-quinolyl]-N'-(2,4-difluorophenyl)urea]", "values": [{"measurement": "inhibition at 1 µM", "setting": "[1]", "value": 97.1, "unit": "%"}]}
{"smiles": "Cc1cc(C)c2c(c1)c(-c1ccccc1Cl)c(NC(=O)Nc1c(C)cccc1C(C)C)c(=O)n2C", "note": "[Example 5, N-[4-(2-chlorophenyl)-1,2-dihydro-1,6,8-trimethyl-2-oxo-3-quinolyl]-N'-(2-isopropyl-6-methylphenyl)urea]", "values": [{"measurement": "inhibition at 1 µM", "setting": "[1]", "value": 98.2, "unit": "%"}, {"measurement": "IC50", "setting": "[1]", "value": 18, "unit": "nM"}]}
{"smiles": "CCn1c(=O)c(NC(=O)Nc2ccc(F)cc2F)c(-c2ccccc2Cl)c2cc(C)cc(C)c21", "note": "[Example 6, N-[4-(2-chlorophenyl)-1-ethyl-1,2-dihydro-6,8-di-methyl-2-oxo-3-quinolyl]-N'-(2,4-difluorophenyl)urea]", "values": [{"measurement": "inhibition at 1 µM", "setting": "[1]", "value": 97.9, "unit": "%"}]}
{"smiles": "Cn1c(=O)c(NC(=O)Nc2ccc(F)cc2F)c(-c2ccccc2)c2cc(Cl)ccc21", "note": "[Example 7, N-(6-chloro-1,2-dihydro-1-methyl-2-oxo-4-phenyl-3-quinolyl)-N'-(2,4-difluorophenyl)urea]", "values": [{"measurement": "inhibition at 1 µM", "setting": "[1]", "value": 77.9, "unit": "%"}]}
{"smiles": "COc1nc2ccc(Cl)cc2c(-c2ccccc2Cl)c1NC(=O)Nc1ccc(F)cc1F", "note": "[Example 9]", "values": [{"measurement": "inhibition at 1 µM", "setting": "[1]", "value": 89.6, "unit": "%"}]}
{"smiles": "Cc1cc2c(-c3ccccc3C)c(NC(=O)Nc3ccc(F)cc3F)c(=O)n(C)c2cc1C", "note": "[Example 10, N-(2,4-difluorophenyl)-N'-(1,2-dihydro-1,6,7-trimethyl-4-(2-methylphenyl)-2-oxo-3-quinolyl]urea]", "values": [{"measurement": "inhibition at 1 µM", "setting": "[1]", "value": 97.6, "unit": "%"}, {"measurement": "IC50", "setting": "[1]", "value": 78, "unit": "nM"}]}
{"smiles": "COc1ccc(-c2c(NC(=O)Nc3ccc(F)cc3F)c(=O)n(C)c3ccc(C)cc23)cc1OC", "note": "[Example 11, N-(2,4-difluorophenyl)-N'-[1,2-dihydro-4-(3,4-di-methoxyphenyl) -1,6-dimethyl-2-oxo-3-quinolyl]urea]", "values": [{"measurement": "inhibition at 1 µM", "setting": "[1]", "value": 96.6, "unit": "%"}]}
{"smiles": "COc1nc2c(C)cc(C)cc2c(-c2ccccc2Cl)c1NC(=O)Nc1ccc(F)cc1F", "note": "[Example 12, N-[4-(2-chlorophenyl)-2-methoxy-6,8-dimethyl-3-quinolyl]-N -(2,4-difluorophenyl)urea]", "values": [{"measurement": "inhibition at 1 µM", "setting": "[1]", "value": 95.9, "unit": "%"}]}
{"smiles": "Cc1cc(C)c2nc(C)c(NC(=O)Nc3ccc(F)cc3F)c(-c3ccccc3Cl)c2c1", "note": "[Example 13, N-[4-(2-chlorophenyl)-2,6,8-trimethyl-3-quinolyl]-N'-(2,4-difluorophenyl)urea]", "values": [{"measurement": "inhibition at 1 µM", "setting": "[1]", "value": 85.4, "unit": "%"}]}
{"smiles": "COc1cc(NC(=O)Nc2c(-c3ccccc3Cl)c3cc(C)c(C)cc3n(C)c2=O)cc(OC)c1OC(C)=O", "note": "[Example 15, N-(4-acetoxy-3,5-di-methoxyphenyl) -N'-[4-(2-chlorophenyl)-1,2-dihydro-1,6,7-trimethyl-2-oxo-3-quinolyl]urea]", "values": [{"measurement": "inhibition at 1 µM", "setting": "[1]", "value": 90.1, "unit": "%"}]}
{"smiles": "CCc1ccc2c(c1)c(-c1ccccc1Cl)c(NC(=O)Nc1ccc(F)cc1F)c(=O)n2C", "note": "[Example 17, N-[4-(2-chlorophenyl)-1,2-dihydro-6-ethyl-1-methyl-2-oxo-3-quinolyl]-N'-(2,4-difluorophenyl)urea]", "values": [{"measurement": "inhibition at 1 µM", "setting": "[1]", "value": 96.5, "unit": "%"}, {"measurement": "IC50", "setting": "[1]", "value": 25, "unit": "nM"}]}
{"smiles": "CCc1ccc2c(c1)c(-c1ccccc1Cl)c(NC(=O)Nc1c(C)cccc1C(C)C)c(=O)n2C", "note": "[Example 18, N-[4-(2-chlorophenyl)-1,2-dihydro-6-ethyl-1-methyl-2-oxo-3-quinolyl]-N'-(2-isopropyl-6-methylphenyl)urea]", "values": [{"measurement": "inhibition at 1 µM", "setting": "[1]", "value": 99.2, "unit": "%"}, {"measurement": "IC50", "setting": "[1]", "value": 12, "unit": "nM"}]}
{"smiles": "CC(C)c1ccc2c(c1)c(-c1ccccc1Cl)c(NC(=O)Nc1ccc(F)cc1F)c(=O)n2C", "note": "[Example 19, N-[4-(2-chlorophenyl)-1,2-dihydro-6-isopropyl-1-methyl-2-oxo-3-quinolyl]-N'-(2,4-difluorophenyl)urea]", "values": [{"measurement": "inhibition at 1 µM", "setting": "[1]", "value": 97.8, "unit": "%"}, {"measurement": "IC50", "setting": "[1]", "value": 37, "unit": "nM"}]}
{"smiles": "Cc1ccccc1-c1c(NC(=O)Nc2ccc(F)cc2F)c(=O)n(C)c2ccc(Cl)cc12", "note": "[Example 20, N-[6-chloro-1,2-dihydro-1-methyl-4-(2-methylphenyl)-2-oxo-3-quinolyl]-N'-(2,4-difluorophenyl)urea]", "values": [{"measurement": "inhibition at 1 µM", "setting": "[1]", "value": 96.1, "unit": "%"}, {"measurement": "IC50", "setting": "[1]", "value": 35, "unit": "nM"}]}
{"smiles": "Cc1ccccc1-c1c(NC(=O)Nc2c(C)cccc2C(C)C)c(=O)n(C)c2ccc(Cl)cc12", "note": "[Example 21, N-[6-chloro-1,2-dihydro-1-methyl-4-(2-methylphenyl)-2-oxo-3-quinolyl]-N'-(2-isopropyl-6-methylphenyl)urea]", "values": [{"measurement": "inhibition at 1 µM", "setting": "[1]", "value": 99.4, "unit": "%"}, {"measurement": "IC50", "setting": "[1]", "value": 17, "unit": "nM"}]}
{"smiles": "COc1ccc(-c2c(NC(=O)Nc3c(C)cccc3C(C)C)c(=O)n(C)c3ccc(C)cc23)cc1OC", "note": "[Example 22, N-[1,2-dihydro-4-(3,4-dimethoxyphenyl)-1,6-dimethyl-3-quinolyn]-N'-(2-isopropyl-6-methylphenyl)urea]", "values": [{"measurement": "inhibition at 1 µM", "setting": "[1]", "value": 99, "unit": "%"}, {"measurement": "IC50", "setting": "[1]", "value": 37, "unit": "nM"}]}
{"smiles": "COc1ccc(-c2c(NC(=O)Nc3c(C)cccc3C(C)C)c(=O)n(C)c3ccc(Cl)cc23)cc1OC", "note": "[Example 23]", "values": [{"measurement": "inhibition at 1 µM", "setting": "[1]", "value": 99, "unit": "%"}, {"measurement": "IC50", "setting": "[1]", "value": 41, "unit": "nM"}]}
{"smiles": "Cc1cc2c(-c3ccccc3C)c(NC(=O)Nc3ccc(F)cc3F)c(=O)n(C)c2cc1Cl", "note": "[Example 24, N-[7-chloro-1,2-dihydro-4-(2-methylphenyl)-1,6-dimethyl-2-oxo-3-quinolyl]-N'-(2,4-difluorophenyl)urea]", "values": [{"measurement": "inhibition at 1 µM", "setting": "[1]", "value": 99.2, "unit": "%"}, {"measurement": "IC50", "setting": "[1]", "value": 9.3, "unit": "nM"}, {"measurement": "Cholesterol in Serum", "setting": "[2]", "value": "113 ± 41", "unit": "mg/dL"}]}
